Source: US8546343B2, “Aminoglycoside antibiotics targeting bacterial 16S ribosomal RNA” (Eidgenoessische Technische Hochschule Zurich, priority 2007, dated 2013)
In brackets after ≈: the same amount, converted by molar mass.

Assays:
[1] = tested on: M. smegmatis ΔrrnB 1491A (16S rRNA position 1491 A, eukaryotic cytosolic ribosomes); assay: MIC, recombinant M. smegmatis with mutant ribosomes 1491A; type: cell-based, Mycobacterium smegmatis; conditions: M. smegmatis ΔrrnB 1491A mutant ribosomes; 72 h at 37° C.
Procedure, shortened: (§1)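 M. smegmatis single-rRNA-operon strain carrying the indicated 16S rRNA decoding-site alleles, introduced into the chromosomal operon and confirmed by sequencing. Colony-purified cultures were grown in LB with 0.05% Tween 80 and started at OD600 0.025. MIC was read in microtiter format against twofold drug dilutions.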

[2] = tested on: AG016 S. aureus BM3002; assay: Standard MIC assay, AG016; type: cell-based, Staphylococcus aureus
Description: (§2) Selected compounds of the present invention were tested for antibiotic susceptibility using clinical isolates of Staphylococci, Enterococci and Escherichia coli as well as strains carrying defined resistance determinants and compared to well known antibiotics of the state of the art. Drug susceptibility was determined in standard MIC assays, i.e. by determination of the minimal drug concentration required to inhibit bacterial growth in vitro.

[3] = tested on: AG008 E. coli BM13 (ANT2″); assay: Standard MIC assay, AG008; type: cell-based, Escherichia coli; conditions: E. coli BM13 (ANT2″)
Description: as §2

[4] = tested on: M. smegmatis ΔrrnB (bacterial ribosomes); assay: MIC, recombinant M. smegmatis with bacterial (wild-type) ribosomes; type: cell-based, Mycobacterium smegmatis; conditions: 72 h at 37° C.
Procedure, shortened: as §1

[5] = tested on: AG019 E. faecalis JH2-2 (APH2″ AAC6′); assay: Standard MIC assay, AG019; type: cell-based, Enterococcus faecalis; conditions: E. faecalis JH2-2 (APH2″ AAC6′)
Description: as §2

[6] = tested on: AG014 Staph. epi. clinical isolate; assay: Standard MIC assay, AG014; type: cell-based, Staphylococcus epidermidis
Description: as §2

[7] = tested on: AG003 E. coli clinical isolate; assay: Standard MIC assay, AG003; type: cell-based, Escherichia coli
Description: as §2

[8] = tested on: AG017 E. faecalis JH2-2; assay: Standard MIC assay, AG017; type: cell-based, Enterococcus faecalis
Description: as §2

[9] = tested on: AG001 E. coli clinical isolate; assay: Standard MIC assay, AG001; type: cell-based, Escherichia coli
Description: as §2

[10] = tested on: AG013 Staph. epi. clinical isolate; assay: Standard MIC assay, AG013; type: cell-based, Staphylococcus epidermidis
Description: as §2

[11] = tested on: M. smegmatis ΔrrnB 1408G (16S rRNA position 1408 G, eukaryotic cytosolic ribosomes); assay: MIC, recombinant M. smegmatis with mutant ribosomes 1408G; type: cell-based, Mycobacterium smegmatis; conditions: M. smegmatis ΔrrnB 1408G mutant ribosomes; 72 h at 37° C.
Procedure, shortened: as §1

[12] = tested on: AG006 E. coli BM13; assay: Standard MIC assay, AG006; type: cell-based, Escherichia coli
Description: as §2

[13] = tested on: AG015 S. aureus BM3002 (ANT4′); assay: Standard MIC assay, AG015; type: cell-based, Staphylococcus aureus; conditions: S. aureus BM3002 (ANT4′)
Description: as §2

[14] = tested on: AG009 E. coli BM13 AAC(6′)-1B; assay: Standard MIC assay, AG009; type: cell-based, Escherichia coli; conditions: E. coli BM13 AAC(6′)-1B
Description: as §2

[15] = tested on: AG011 Staph. aureus clinical isolate; assay: Standard MIC assay, AG011; type: cell-based, Staphylococcus aureus
Description: as §2

[16] = tested on: AG007 E. coli BM13 (AAC3); assay: Standard MIC assay, AG007; type: cell-based, Escherichia coli; conditions: E. coli BM13 (AAC3)
Description: as §2

[17] = tested on: AG004 E. coli clinical isolate; assay: Standard MIC assay, AG004; type: cell-based, Escherichia coli
Description: as §2

[18] = tested on: M. smegmatis ΔrrnB 1491C (16S rRNA position 1491 C, eukaryotic mitochondrial ribosome); assay: MIC, recombinant M. smegmatis with mutant ribosomes 1491C; type: cell-based, Mycobacterium smegmatis; conditions: M. smegmatis ΔrrnB 1491C mutant ribosomes; 72 h at 37° C.
Procedure, shortened: as §1

[19] = tested on: AG002 E. coli clinical isolate; assay: Standard MIC assay, AG002; type: cell-based, Escherichia coli
Description: as §2

| Compound | minimal inhibitory concentrations ΔrrnB 1491A [1] | Minimal inhibitory concentrations AG016 [2] [mg/L] | Minimal inhibitory concentrations AG008 [3] [mg/L] | minimal inhibitory concentrations ΔrrnB [4] [µg/mL] | Minimal inhibitory concentrations AG019 [5] [mg/L] | Minimal inhibitory concentrations AG014 [6] | Minimal inhibitory concentrations AG003 [7] | Minimal inhibitory concentrations AG017 [8] [mg/L] | Minimal inhibitory concentrations AG001 [9] [mg/L] | Minimal inhibitory concentrations AG013 [10] | minimal inhibitory concentrations ΔrrnB 1408G [11] | Minimal inhibitory concentrations AG006 [12] [mg/L] | Minimal inhibitory concentrations AG015 [13] [mg/L] | Minimal inhibitory concentrations AG009 [14] [mg/L] | Minimal inhibitory concentrations AG011 [15] [mg/L] | Minimal inhibitory concentrations AG007 [16] [mg/L] | Minimal inhibitory concentrations AG004 [17] [mg/L] | minimal inhibitory concentrations ΔrrnB 1491C [18] | Minimal inhibitory concentrations AG002 [19] [mg/L] |
| --- | --- | --- | --- | --- | --- | --- | --- | --- | --- | --- | --- | --- | --- | --- | --- | --- | --- | --- | --- |
| NC[C@@H]1O[C@H](O[C@H]2[C@@H](O)[C@H](O[C@@H]3[C@@H](O)[C@H](N)C[C@H](N)[C@H]3O[C@H]3O[C@@H]4CO[C@@H](c5ccccc5)O[C@H]4[C@H](O)[C@H]3N)O[C@@H]2CO)[C@H](N)[C@@H](O)[C@@H]1O [Compound 5.1, 4′,6′-O-benzylideneparomomycin] | 512 µg/mL | 16 to 32 | 32 (≈ 45.5 µM) | 4 | 256 (≈ 364 µM) | 8 mg/L (≈ 11.4 µM) | 32 mg/L (≈ 45.5 µM) | 32 to 64 | 64 (≈ 90.9 µM) | 8 to 16 mg/L | 512 µg/mL | 32 (≈ 45.5 µM) | 32 to 64 | 128 (≈ 182 µM) | 8 (≈ 11.4 µM) | 32 (≈ 45.5 µM) | 32 to 64 | >512 µg/mL | 64 (≈ 90.9 µM) |
| NC[C@@H]1O[C@H](O[C@H]2[C@@H](O)[C@H](O[C@@H]3[C@@H](O)[C@H](N)C[C@H](N)[C@H]3O[C@H]3O[C@@H]4CO[C@@H](c5ccc(C(F)(F)F)cc5)O[C@H]4[C@H](O)[C@H]3N)O[C@@H]2CO)[C@H](N)[C@@H](O)[C@@H]1O [Compound 5.17, 4′,6′-O-p-Trifluoromethylbenzylideneparomomycin] | 512 µg/mL | 8 (≈ 10.4 µM) | 32 (≈ 41.5 µM) | 2 to 4 | 128 (≈ 166 µM) | 4 mg/L (≈ 5.18 µM) | 32 to 64 mg/L | 32 (≈ 41.5 µM) | 32 to 64 | 4 to 8 mg/L | >512 µg/mL | 32 (≈ 41.5 µM) | 32 (≈ 41.5 µM) | 64 to 128 | 4 (≈ 5.18 µM) | 32 (≈ 41.5 µM) | 32 (≈ 41.5 µM) | 512 µg/mL | 32 to 64 |
| NC[C@@H]1O[C@H](O[C@H]2[C@@H](O)[C@H](O[C@@H]3[C@@H](O)[C@H](N)C[C@H](N)[C@H]3O[C@H]3O[C@@H]4CO[C@@H](CCc5ccccc5)O[C@H]4[C@H](O)[C@H]3N)O[C@@H]2CO)[C@H](N)[C@@H](O)[C@@H]1O [Compound 5.25, 4′,6′-O-(3-Phenyl)-propylideneparomomycin] | ≧512 μg/ml | 8 (≈ 10.9 µM) | 32 (≈ 43.7 µM) | 1 | 32 (≈ 43.7 µM) | 4 mg/L (≈ 5.47 µM) | 32 mg/L (≈ 43.7 µM) | 8 (≈ 10.9 µM) | 32 to 64 | 4 to 8 mg/L | 512 µg/mL | 16 to 32 | 8 to 16 | 64 to 128 | 4 (≈ 5.47 µM) | 16 to 32 | 32 (≈ 43.7 µM) | ≧512 μg/ml | 32 to 64 |
| NC[C@@H]1O[C@H](O[C@H]2[C@@H](O)[C@H](O[C@@H]3[C@@H](O)[C@H](N)C[C@H](N)[C@H]3O[C@H]3O[C@@H]4COC(C=Cc5ccccc5)O[C@H]4[C@H](O)[C@H]3N)O[C@@H]2CO)[C@H](N)[C@@H](O)[C@@H]1O (stereo partly shown) [Compound 5.26, 4′,6′-O-(3-Phenyl)-propenylideneparomomycin] | ≧512 μg/ml | 8 (≈ 11 µM) | 32 (≈ 43.8 µM) | 2 to 4 | 64 to 128 | 4 mg/L (≈ 5.48 µM) | 32 mg/L (≈ 43.8 µM) | 16 to 32 | 32 to 64 | 4 to 8 mg/L | ≧512 μg/ml | 32 (≈ 43.8 µM) | 16 to 32 | 128 (≈ 175 µM) | 4 (≈ 5.48 µM) | 32 (≈ 43.8 µM) | 32 (≈ 43.8 µM) | ≧512 μg/ml | 64 (≈ 87.7 µM) |
| NC[C@H]1O[C@H](O[C@H]2[C@H](O)[C@@H](O[C@H]3O[C@H](CO)[C@@H](O)[C@H](N)[C@H]3O)[C@H](N)C[C@@H]2N)[C@H](O)[C@@H](O)[C@@H]1O [Kanamycin A, kanamycin A, reference compound] | – | 4 to 8 | 128 (≈ 264 µM) | – | >256 | ≧256 mg/l | 32 mg/L (≈ 66 µM) | 32 to 64 | 16 (≈ 33 µM) | ≧256 mg/l | – | 8 (≈ 16.5 µM) | 256 (≈ 528 µM) | >256 | 16 (≈ 33 µM) | 8 (≈ 16.5 µM) | 64 (≈ 132 µM) | – | 16 (≈ 33 µM) |
| Gentamicin [reference compound] | – | 1 | 64 | – | >256 | ≧256 mg/l | ≧256 mg/l | 8 to 16 | 4 | ≧256 mg/l | – | 4 | 4 | 32 | 4 | 128 | >256 | – | 2 |
